B1: OP-1® Osteogenic graft material: Osteogenic protein-1, a 36 kD homodimer protein in the TGI-β super-family; a bone morphogenic protein (protein, UniProt P18075 293-431, looked up)
Bone morphogenetic protein 7: STGSKQRSQNRSKTPKNQEALRMANVAENSSSDQRQACKKHELYVSFRDLGWQDWIIAPEGYAAYYCEGECAFPLNSYMNATNHAIVQTLVHFINPETVPKPCCAPTQLNAISVLYFDDSSNVILKKYRNMVVRACGCH
modifications: graft material
notes: Osteogenic protein-1, a 36 kD homodimer protein in the TGI-β super-family; a bone morphogenic protein

Tests used:
[1] = system: Staphylococcus aureus (ATCC strain #6538); experiment: modified Kirby Bauer susceptibility model, zone of inhibition around antibiotic containing HA disk; type: cell-based; conditions: for Zone of Inhibition (mm): antibiotic absorbed into precipitated crystalline HA coating, Mueller-Hinton agar, 24 hr at 37° C.
Procedure: 1.2 Grams of tobramycin sulfate was dissolved in 12 milliliters of sterile deionized water (100 mg/ml). […] Ten (10) μl of solution was pipetted onto the surface of each of the […] coated disks and allowed to dry. […] The test coupons were then placed into a buffered saline at 37° C. immediately after the absorption process was completed. […] In the well-known Kirby Bauer Susceptibility Model test organisms were propagated and handled in accordance with ATCC recommendations for broth media, agar, and incubation specifications. […] Each seeded plate was challenged with both an antibiotic containing HA disk and a non-antibiotic containing HA disk, which served as a control. Samples were tested in duplicate (i.e., two plates per organism). Following incubation for 24 hr. at 37° C., the plates were examined for zones of inhibition around the disks. The zone of inhibition is defined as the distance between the test disk and the edge of bacterial growth. It is common for a hazy, or “ghost” zone to exist between the areas of complete inhibition and full bacterial growth. This “ghost” zone is the result of partial inhibition and is not included in the measurement of the zone of inhibition.

[2] = system: adductor muscles (intramuscular pouch); type: in vivo, Long-Evans male rats
From the text: In-vivo study of OP-1® Osteogenic graft material coated implants: Freshly reconstituted OP-1® Osteogenic graft material in lactose solution was loaded onto each surface of the PA coated disk using sterile pipettes. The solution evenly spaced across the dry surface and was completely absorbed. Sixteen Long-Evans male rats with body weight 300-390 g were used in the study. The animals were anesthetized and an incision was made on the medial thigh to prepare intramuscular pouch within the adductor muscles for placement of the implant articles, on both contra-lateral limbs. A total of 32 implants were divided into 4 groups: (A) titanium disks; (B) titanium disks coated with PA, (C) titanium disks coated with PA plus OP-1® Osteogenic graft material (40 μg), (D) OP-1® Osteogenic graft material solution (40 μg). For Group C, the OP-1® Osteogenic graft material solution was directly pipeted on each Ti disk immediately before implantation. The solution was absorbed within 1 minute. For Group D, OP-1® Osteogenic graft material solution was dropped into the muscular pouch. The same amount of identical carrier solution for OP-1® Osteogenic graft material was loaded on disks of Groups A and B. After implantation, the pouch was closed with 3-0 chromic sutures, and the wound was closed in layers. The rats were housed individually and allowed unrestricted activity immediately after […]. All the animals were sacrificed 4 weeks postoperatively. The complete limb was disarticulated from hip joint and x-rayed. The implants with their surrounding tissues were retrieved. All implants were processed for undecalcified thin section histology using EXAKT technique. The slides were stained with Stevenel's blue/van Gieson's picrofuchsin method for histological analysis. Bone was stained in red color and fibrous tissue in blue. Half of the specimens of Group D were decalcified and embedded in paraffin. Sections were stained with hematoxylin and eosin.

[3] = binding of [125I]OP-1 to PA coated titanium disks (scintillation counting); conditions: FIG. 3 time course
Procedure: Materials and Methods—Preparation of implant test articles: Titanium alloy (Ti6A14V) disks/coupons 5 mm in diameter and 3 mm thick were coated both sides with PA coating using the method of Example I. The thickness of the coating surface was determined by SEM to be nominally 20 μm to 50 μm.
Determination of the binding capacity of OP-1® Osteogenic graft material: A pre-mixed blend of unlabelled OP-1® Osteogenic graft material with iodine [^125I] for tracking purposes was used. The OP-1® Osteogenic graft material in a lactose solution was pipetted on PA coated disks in triplicate. A range of OP-1® Osteogenic graft material incubation time and concentration treatment was applied to determine the time-course and binding capacity of the graft material on the PA coated disk. Following the incubation, each coupon was washed with lactose solution and the washes were collected in a scintillation vial. 10 ml of the scintillation cocktail was added to each test article and wash sample and the scintillation counts were measured in a liquid scintillation counter (LSC) to calculate the amount of OP-1® Osteogenic graft material bound to the PA coated disk.

[4] = precipitation of OP-1 protein in solution; type: physicochemical

Molecule	Zone of Inhibition (mm) [1]	other results
N[C@@H](C(=O)N[C@@H]1C(=O)N2C(C(=O)O)=C(Cl)CS[C@H]12)c1ccccc1 [Cefaclor]	20.5 mm	
Cn1nnnc1SCC1=C(C(=O)O)N2C(=O)[C@@H](NC(=O)[C@H](O)c3ccccc3)[C@H]2SC1 [Cefamandole]	25 mm	
CC1=C(C(=O)O)N2C(=O)[C@@H](NC(=O)[C@H](N)c3ccccc3)[C@H]2SC1 [Cephalexin]	19 mm	
CC(=O)OCC1=C(C(=O)O)N2C(=O)[C@@H](NC(=O)CCC[C@@H](N)C(=O)O)[C@H]2SC1 [Cephalosporin C]	11.5 mm	
O=C(O)c1cn(C2CC2)c2cc(N3CCNCC3)c(F)cc2c1=O [Ciprofloxacin]	15.5 mm	
NC[C@H]1O[C@H](O[C@H]2[C@H](O)[C@@H](O[C@H]3O[C@H](CO)[C@@H](O)[C@H](N)[C@H]3O)[C@H](N)C[C@@H]2N)[C@H](N)C[C@@H]1O [Tobramycin]	10 mm	biological activity of released antibiotic ([1]; after absorption into the hydroxyapatite structure): remained biologically active
CN[C@H](CC(C)C)C(=O)N[C@H]1C(=O)N[C@@H](CC(N)=O)C(=O)N[C@H]2C(=O)N[C@H]3C(=O)N[C@H](C(=O)N[C@H](C(=O)O)c4cc(O)cc(O)c4-c4cc3ccc4O)[C@H](O)c3ccc(c(Cl)c3)Oc3cc2cc(c3O[C@@H]2O[C@H](CO)[C@@H](O)[C@H](O)[C@H]2O[C@H]2C[C@](C)(N)[C@H](O)[C@H](C)O2)Oc2ccc(cc2Cl)[C@H]1O [Vancomycin]	10.5 mm	
Penicillin [Penicillin Benzathine]	22.5 mm	
Penicillin [Penicillin Potassium Salt]	29 mm	
Penicillin [Penicillin Procaine]	26.5 mm	
Penicillin [Penicillin Sodium Salt]	28 mm	
B1		extension of new bone surrounding the disks ([2]; Group C: titanium disks coated with PA plus OP-1 (40 μg), radiographic, 4 weeks): ≤ 10 mm; inflammation in the specimens ([2]; rat, in vivo): no inflammation; incidence of bone formation ([2]; the two groups treated with OP-1 (40 μg; Groups C and D), 4 weeks): 100%; time after loading at which maximal binding to PA is achieved [3]: 5 h; concentration over which protein spontaneously precipitates [4]: over 5 mg/mL

— US20050169964A1, “Antibiotic calcium phosphate coating” (Howmedica Osteonics Corp., priority 2001, published 2005)
